What all share (type): nucleic-acid assay
Assay [1] concerns the target Nucleic Acid. In words: Binding affinity to D10/DA24 ssDNA aptamer.
The target in assay [2] is Nucleic Acid. In words: Binding affinity to D22 ssDNA aptamer.
Assay [3] concerns the target Nucleic Acid. Briefly: Binding affinity to D16 ssDNA aptamer.
In assay [4] the target is Nucleic Acid. Briefly: Binding affinity to D3 ssDNA aptamer.

Active and inactive are the calls of the source. The rule behind the calls is not given here.

Two compounds from ChEMBL document CHEMBL1152509, “ssDNA aptamers that recognize diclofenac and 2-anilinophenylacetic acid” (Bioorg Med Chem, 2009) can be followed below.

The Kd is the free concentration of one partner at which half of the binding sites on the other are occupied at equilibrium, for simple one-to-one binding. A higher Kd goes with a looser complex. In the case of `O=C(O)Cc1ccccc1Nc1c(Cl)cccc1Cl` [DICLOFENAC], the Kd at Nucleic Acid [1] was 101 nM; on Nucleic Acid [2], 166 nM; at Nucleic Acid [3] it was 149 nM; at Nucleic Acid [4] it was 42.7 nM.

`O=C(O)Cc1ccccc1Nc1ccccc1`: the outcome with Nucleic Acid [2] and in the assay on Nucleic Acid [3] was Active. The result in the assay with Nucleic Acid [4] was inactive.
